Data published in EP0877031A1, “TGF-Beta1 derived peptides mimicking the activity of transforming growth factor-Beta1” (INSTITUUT VOOR DIERHOUDERIJ EN DIERGEZONDHEID (ID-DLO), priority 1997, dated 1998).

Experiments:
[1] = tested on: Mink lung epithelial cells (Mv 1 Lu); experiment: Mv 1 Lu growth inhibition assay for agonistic TGF activity (peptides alone, acid phosphatase readout); format: cell-based; conditions: peptide alone, 5 days of incubation, acid phosphatase activity as marker for cell growth
Description: (§1) An assay for TGF-β1 biological activity, bases on Mink lung epithelial cells (Mv 1 Lu), was used for analysis of the biological activity of peptides derived from the human TGF-β1 primary sequence. This assay is based on growth inhibition of Mv 1 Lu cells in presence of TGF-β1. Inhihition of Mv 1 Lu growth is quantified by acid phosphatase activity as a marker for cell growth.
(§2) Mink lung epithelial cells (Mv 1 Lu) were plated in 96-well tissue culture plates (Costar, Cambridge, MA) at 100 cells/well in 100 µl Eagle's MEM supplemented with 20IE/ml penicillin, 1 mg/ml streptomycin, 0.4 mM L-glutamine, 10 mM HEPES and 10% FCS (HyClone, Logan, UT). Plates were incubated at 37°C and 5% CO2 in a humidified incubator for 1.5 h to allow cell attachment. After cell attachment peptides were added in a volume of 50 µl in Eagle's MEM supplemented with 20IE/ml penicillin, 1 mg/ml streptomycin, 0.4 mM L-glutamine, 10 mM HEPES and 10% FCS and titrated with eight threefold dilutions of peptide. The cells were subsequently incubated for 5 days at 37°C and 5% CO2 in a humidified incubator. After incubation cell growth was monitored using acid phosphatase activity as a marker: The plates were washed twice with 200 µl PBS per well and 100 µl of substrate solution (0.1 M sodium acetate, 0,1% Triton X-100, 3.7 mg/ml p-nitrophenyl phosphate, pH 5.5) were added to each well. The plates were then incubated for 1.5 h at 37°C, after which 25 µl of 0.4 M NaOH were added to each well. Acid phosphatase activity was detected by measuring the OD of the substrate solution using an microplate reader at 405 nm.
In this example, all peptides comprising 12 amino acids prepared as described under the head "Peptide synthesis", were tested in the Mv 1 Lu growth inhibition assay. In this assay peptides were titrated in eight threefold dilutions, starting with a peptide quantity of 10-100 µg per well. After 5 days of incubation the wells were tested for acid phosphatase activity.

[2] = tested on: Mink lung epithelial cells (Mv 1 Lu); experiment: Mv 1 Lu growth inhibition assay, preincubation with peptides followed by a suboptimal quantity of TGF-β1; format: cell-based; conditions: 4 h preincubation with peptide, then suboptimal 3.3 x 10^-3 µM TGF-β1, 5 days of incubation
Description: as §1, §2
In this example Mv 1 Lu cells were preincubated with TGF-β1 derived peptides which were titrated in eight threefold dilutions, starting with a peptide quantity of 10-100 µg per well. After 4 h of preincubation a suboptimal quantity of 3.3 x 10^-3 µM TGF-β1. The TGF-β1 (R&D systems, M1) Porcine TGF-β1 is 100% homologue to humam TGF-β1 (Roberts et al. in Handbook of Experimental Pharmacology, Editors Sporn, M.B.; Robers A.B.; Springer Verlag Heidelberg (1990), 95, 419) was added. After 5 days of incubation the wells were tested for acid phosphatase activity.

Sequence: CCVRQLYIDFRK
- growth inhibition of mink lung epithelial cells (TGF agonist activity) [1]: inhibited the growth of mink lung epithelial cells in a similar way as TGF-β1 does
- enhanced inhibition of the growth of mink lung epithelial cells when combined with TGF-β1 (synergistic effect) [2]: enhanced inhibition of the growth of the mink lung epithelial cells

Sequence: CFSSTEKNCCVR
- growth inhibition of mink lung epithelial cells (TGF agonist activity) [1]: inhibited the growth of mink lung epithelial cells in a similar way as TGF-β1 does

Sequence: EKNCCVRQLYID
- growth inhibition of mink lung epithelial cells (TGF agonist activity) [1]: inhibited the growth of mink lung epithelial cells in a similar way as TGF-β1 does

Sequence: FSSTEKNCCVRQ
- growth inhibition of mink lung epithelial cells (TGF agonist activity) [1]: inhibited the growth of mink lung epithelial cells in a similar way as TGF-β1 does

Sequence: HNPGASAAPCCV
- enhanced inhibition of the growth of mink lung epithelial cells when combined with TGF-β1 (synergistic effect) [2]: enhanced inhibition of the growth of the mink lung epithelial cells

Sequence: KNCCVRQLYIDF
- enhanced inhibition of the growth of mink lung epithelial cells when combined with TGF-β1 (synergistic effect) [2]: enhanced inhibition of the growth of the mink lung epithelial cells

Sequence: LSNMIVRSCKCS
- growth inhibition of mink lung epithelial cells (TGF agonist activity) [1]: inhibited the growth of mink lung epithelial cells in a similar way as TGF-β1 does
- enhanced inhibition of the growth of mink lung epithelial cells when combined with TGF-β1 (synergistic effect) [2]: enhanced inhibition of the growth of the mink lung epithelial cells

Sequence: NCCVRQLYIDFR
- growth inhibition of mink lung epithelial cells (TGF agonist activity) [1]: inhibited the growth of mink lung epithelial cells in a similar way as TGF-β1 does
- enhanced inhibition of the growth of mink lung epithelial cells when combined with TGF-β1 (synergistic effect) [2]: enhanced inhibition of the growth of the mink lung epithelial cells

Sequence: QHNPGASAAPCC
- enhanced inhibition of the growth of mink lung epithelial cells when combined with TGF-β1 (synergistic effect) [2]: enhanced inhibition of the growth of the mink lung epithelial cells
